Where two headings read alike, the source gives them in different places.
What was measured:
[1] = target: human Werner helicase (WRN, amino acids 517-1235 with L1074F point mutation) (Homo sapiens (Human), UniProt Q14191, L1074F); experiment: WRN (BV08) ADP-Glo assay; type: biochemical; details: human WRN (aa 517-1235, L1074F), read-out: ADP-Glo_hWRN_IC50
Summary of the method: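 Untagged WRN 517-1235 (L1074F), Sf9/baculovirus-expressed, 0.15 nM, preincubated 15 min with compound, then 5 μM ATP and 0.1 nM annealed DNA duplex added; 60 min at 25 °C in Bicine pH 7.5, 1 mM MgCl2, 1% DMSO. ADP-Glo luminescence; % inhibition vs DMSO and 20 μM NSC-617145 controls, four-parameter IC50 fit.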

[2] = test system: p21 induction in HCT 116 cells; experiment: p21 induction in cells (In-Cell Western, p21/GAPDH ratio); type: cell-based; details: 24 h compound incubation, read-out: p21_EC50
Summary of the method: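 HCT 116 cells treated 24 h at 37° C with 11-point, 2-fold dilutions typically from 10 μM, in duplicate. Fixed cells co-stained for p21 (800 nm) and GAPDH (700 nm) by In-Cell Western. p21/GAPDH ratio normalised between DMSO and reference WRN inhibitor controls, and EC50 obtained by nonlinear regression.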

Chain of human Werner helicase (WRN, amino acids 517-1235 with L1074F point mutation) (Q14191 other isoform, or with tags, fused parts or gaps L1074F (already in the parent)): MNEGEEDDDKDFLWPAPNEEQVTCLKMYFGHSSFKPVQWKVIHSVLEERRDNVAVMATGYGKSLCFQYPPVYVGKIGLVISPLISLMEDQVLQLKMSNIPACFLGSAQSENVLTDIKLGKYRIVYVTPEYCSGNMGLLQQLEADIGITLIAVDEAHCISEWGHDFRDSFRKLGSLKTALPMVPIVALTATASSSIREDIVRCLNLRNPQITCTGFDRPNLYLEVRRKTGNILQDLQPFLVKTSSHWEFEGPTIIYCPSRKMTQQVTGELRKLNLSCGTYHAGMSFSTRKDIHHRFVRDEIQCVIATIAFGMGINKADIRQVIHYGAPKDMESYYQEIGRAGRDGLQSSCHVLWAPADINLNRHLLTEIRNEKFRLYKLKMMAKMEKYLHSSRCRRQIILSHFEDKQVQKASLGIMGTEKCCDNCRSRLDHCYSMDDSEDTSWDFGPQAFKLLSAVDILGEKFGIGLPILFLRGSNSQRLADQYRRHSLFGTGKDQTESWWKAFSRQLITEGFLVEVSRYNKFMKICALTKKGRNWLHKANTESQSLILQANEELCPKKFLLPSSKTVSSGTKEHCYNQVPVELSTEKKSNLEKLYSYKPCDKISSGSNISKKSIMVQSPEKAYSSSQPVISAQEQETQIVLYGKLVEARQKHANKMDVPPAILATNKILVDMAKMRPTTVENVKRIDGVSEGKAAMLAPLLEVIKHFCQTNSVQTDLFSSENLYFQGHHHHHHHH

Row | SMILES | IC50 [1] [nM] | EC50 ([2]; Homo sapiens) [nM] | EC50 [2] [nM]
1 | CCc1c(N2CCN(C(=O)c3ncnc(C)c3O)CC2)c(=O)c2nn(-c3ccccn3)nc2n1CC(=O)Nc1ccc(C(F)(F)F)cc1Cl [Compound I-127, N-[2-chloro-4-(trifluoromethyl)phenyl]-2-{5-ethyl-6-[4-(5-hydroxy-6-methylpyrimidine-4-carbonyl)piperazin-1-yl]-7-oxo-2-(pyridin-2-yl)-2H,4H,7H-[1,2,3]triazolo[4,5-b]pyridin-4-yl}acetamide] | ≤ 5 | ≤ 500 | –
2 | CCc1c(N2CCN(C(=O)c3ncnc(C)c3O)[C@H]3CC[C@@H]32)c(=O)c2nn(C3CC3(F)F)nc2n1CC(=O)Nc1ccc(C(F)(F)F)cc1Cl (stereo partly drawn) [Compound I-189, N-[2-chloro-4-(trifluoromethyl)phenyl]-2-[2-(2,2-difluorocyclopropyl)-5-ethyl-6-[(1S,6S)-5-(5-hydroxy-6-methylpyrimidine-4-carbonyl)-2,5-diazabicyclo[4.2.0]octan-2-yl]-7-oxo-2H,4H,7H-[1,2,3]triazolo[4,5-b]pyridin-4-yl]acetamide] | ≤ 5 | ≤ 500 | –
3 | CCc1c(N2CCN(C(=O)c3ncnc(C)c3O)[C@H]3CC[C@@H]32)c(=O)c2nn(C3=CCOCC3)nc2n1CC(=O)NC12CC(C(C)C)(C1)C2 [Compound I-49, 2-[2-(3,6-dihydro-2H-pyran-4-yl)-5-ethyl-6-[(1S,6S)-5-(5-hydroxy-6-methylpyrimidine-4-carbonyl)-2,5-diazabicyclo[4.2.0]octan-2-yl]-7-oxo-2H,4H,7H-[1,2,3]triazolo[4,5-b]pyridin-4-yl]-N-[3-(propan-2-yl)bicyclo[1.1.1]pentan-1-yl]acetamide] | 5 to 50 | – | ≤ 500
4 | CCc1c(N2CCN(C(=O)c3c(O)ccc(C)c3OC)CC2)c(=O)c2nn(-c3ccnc(OC)c3)nc2n1CC(=O)NC12CC(C3CC3)(C1)C2 [Compound I-110, N-{3-cyclopropylbicyclo[1.1.1]pentan-1-yl}-2-{5-ethyl-6-[4-(6-hydroxy-2-methoxy-3-methylbenzoyl)piperazin-1-yl]-2-(2-methoxypyridin-4-yl)-7-oxo-2H,4H,7H-[1,2,3]triazolo[4,5-b]pyridin-4-yl}acetamide] | 5 to 50 | 500 to 2000 | –
5 | CCc1c(N2CCN(C(=O)c3ncnc(C)c3O)CC2)c(=O)c2nn(-c3ccncc3)nc2n1CC(=O)NC12CC(C3CCC3)(C1)C2 [Compound I-141, N-{3-cyclobutylbicyclo[1.1.1]pentan-1-yl}-2-{5-ethyl-6-[4-(5-hydroxy-6-methylpyrimidine-4-carbonyl)piperazin-1-yl]-7-oxo-2-(pyridin-4-yl)-2H,4H,7H-[1,2,3]triazolo[4,5-b]pyridin-4-yl}acetamide] | 5 to 50 | 500 to 2000 | –
6 | CCc1c(N2CCN(C(=O)c3ncnc(C)c3O)[C@H]3CC[C@@H]32)c(=O)c2nn(-c3cnn(C4CC4)c3)nc2n1CC(=O)NC12CC(C3CC3)(C1)C2 [Compound I-46, 2-[2-(1-cyclopropyl-1H-pyrazol-4-yl)-5-ethyl-6-[(1S,6S)-5-(5-hydroxy-6-methylpyrimidine-4-carbonyl)-2,5-diazabicyclo[4.2.0]octan-2-yl]-7-oxo-2H,4H,7H-[1,2,3]triazolo[4,5-b]pyridin-4-yl]-N-{3-cyclopropylbicyclo[1.1.1]pentan-1-yl}acetamide] | 5 to 50 | ≤ 500 | –
7 | CCc1c(N2CCN(C(=O)c3ncnc(C)c3O)[C@H]3CC[C@@H]32)c(=O)c2nn(C3=CC(C)OCC3)nc2n1CC(=O)NC12CC(C3CC3)(C1)C2 (stereo partly drawn) [Compound I-164, N-{3-cyclopropylbicyclo[1.1.1]pentan-1-yl}-2-{5-ethyl-6-[(1S,6S)-5-(5-hydroxy-6-methylpyrimidine-4-carbonyl)-2,5-diazabicyclo[4.2.0]octan-2-yl]-2-(6-methyl-3,6-dihydro-2H-pyran-4-yl)-7-oxo-2H,4H,7H-[1,2,3]triazolo[4,5-b]pyridin-4-yl}acetamide] | 5 to 50 | ≤ 500 | –
8 | CCc1c(N2CCN(C(=O)c3ncnc(C)c3O)CC2)c(=O)c2nn(-c3ccnc(OC)c3)nc2n1CC(=O)NC12CC(C3CC3)(C1)C2 [Compound I-135, N-{3-cyclopropylbicyclo[1.1.1]pentan-1-yl}-2-{5-ethyl-6-[4-(5-hydroxy-6-methylpyrimidine-4-carbonyl)piperazin-1-yl]-2-(2-methoxypyridin-4-yl)-7-ox0-2H,4H,7H-[1,2,3]triazolo[4,5-b]pyridin-4-yl}acetamide] | 5 to 50 | ≤ 500 | –
9 | CCc1c(N2CCN(C(=O)c3c(OC)ncc(C)c3O)CC2)c(=O)c2nn(-c3ccnc(OC)c3)nc2n1CC(=O)NC12CC(C(F)(F)F)(C1)C2 [Compound I-128, 2-{5-ethyl-6-[4-(4-hydroxy-2-methoxy-5-methylpyridine-3-carbonyl)piperazin-1-yl]-2-(2-methoxypyridin-4-yl)-7-oxo-2H,4H,7H-[1,2,3]triazolo[4,5-b]pyridin-4-yl}-N-[3-(trifluoromethyl)bicyclo[1.1.1]pentan-1-yl]acetamide] | 5 to 50 | ≤ 500 | –
10 | CCc1c(N2CCN(C(=O)c3cccc(N4CCN(C)CC4)c3OC)[C@H]3CC[C@@H]32)c(=O)c2nn(C3=CCOCC3)nc2n1CC(=O)NC12CC(C(C)C)(C1)C2 [Compound I-169, 2-[2-(3,6-dihydro-2H-pyran-4-yl)-5-ethyl-6-[(1S,6S)-5-[2-methoxy-3-(4-methylpiperazin-1-yl)benzoyl]-2,5-diazabicyclo[4.2.0]octan-2-yl]-7-oxo-2H,4H,7H-[1,2,3]triazolo[4,5-b]pyridin-4-yl]-N-[3-(propan-2-yl)bicyclo[1.1.1]pentan-1-yl]acetamide] | 5 to 50 | 2000 to 5000 | –
11 | CCc1c(N2CCN(C(=O)c3ncc4c(c3O)CCO4)CC2)c(=O)c2nn(-c3ccnc(OC)c3)nc2n1CC(=O)Nc1ccc(C(F)(F)F)cc1Cl [Compound I-152, N-[2-chloro-4-(trifluoromethyl)phenyl]-2-[5-ethyl-6-(4-{4-hydroxy-2H,3H-furo[2,3-c]pyridine-5-carbonyl}piperazin-1-yl)-2-(2-methoxypyridin-4-yl)-7-oxo-2H,4H,7H-[1,2,3]triazolo[4,5-b]pyridin-4-yl]acetamide] | ≤ 5 | ≤ 500 | –
12 | CCc1c(N2CCN(C(=O)c3c(OCCOC)ncc(C)c3O)CC2)c(=O)c2nn(-c3ccnc(OC)c3)nc2n1CC(=O)NC12CC(C(C)C)(C1)C2 [Compound I-45, 2-(5-ethyl-6-{4-[4-hydroxy-2-(2-methoxyethoxy)-5-methylpyridine-3-carbonyl]piperazin-1-yl}-2-(2-methoxypyridin-4-yl)-7-oxo-2H,4H,7H-[1,2,3]triazolo[4,5-b]pyridin-4-yl)-N-[3-(propan-2-yl)bicyclo[1.1.1]pentan-1-yl]acetamide] | 5 to 50 | ≤ 500 | –
13 | CCc1c(N2CCN(C(=O)c3ncnc(C)c3O)[C@H]3CC[C@@H]32)c(=O)c2nn(C3=CCOCC3)nc2n1CC(=O)Nc1ccc(C(F)(F)F)cc1Cl [Compound I-20, N-(2-chloro-4-(trifluoromethyl)phenyl)-2-(2-(3,6-dihydro-2H-pyran-4-yl)-5-ethyl-6-((1S,6S)-5-(5-hydroxy-6-methylpyrimidine-4-carbonyl)-2,5-diazabicyclo[4.2.0]octan-2-yl)-7-oxo-2,7-dihydro-4H-[1,2,3]triazolo[4,5-b]pyridin-4-yl)acetamide] | ≤ 5 | ≤ 500 | –
14 | CCc1c(N2CCN(C(=O)c3ncnc(C)c3O)[C@H]3CC[C@@H]32)c(=O)c2nn(-c3ccnc(OC)c3)nc2n1CC(=O)NC12CC(OC(F)(F)F)(C1)C2 [Compound I-40, 2-{5-ethyl-6-[(1S,6S)-5-(5-hydroxy-6-methylpyrimidine-4-carbonyl)-2,5-diazabicyclo[4.2.0]octan-2-yl]-2-(2-methoxypyridin-4-yl)-7-oxo-2H,4H,7H-[1,2,3]triazolo[4,5-b]pyridin-4-yl}-N-[3-(trifluoromethoxy)bicyclo[1.1.1]pentan-1-yl]acetamide] | 5 to 50 | – | ≤ 500
15 | CCc1c(N2CCN(C(=O)c3ncnc(C)c3O)[C@H]3CC[C@@H]32)c(=O)c2nn(C3CC3)nc2n1CC(=O)NC12CC(C3CC3)(C1)C2 [Compound I-202, 2-{2-cyclopropyl-5-ethyl-6-[(1S,6S)-5-(5-hydroxy-6-methylpyrimidine-4-carbonyl)-2,5-diazabicyclo[4.2.0]octan-2-yl]-7-oxo-2H,4H,7H-[1,2,3]triazolo[4,5-b]pyridin-4-yl}-N-{3-cyclopropylbicyclo[1.1.1]pentan-1-yl}acetamide] | 5 to 50 | 500 to 2000 | –
16 | CCc1c(N2CCN(C(=O)c3c(OC)ncc(C)c3O)CC2)c(=O)c2nn(-c3ccnc(OC)c3)nc2n1CC(=O)NC12CC(C(C)(F)F)(C1)C2 [Compound I-122, N-[3-(1,1-difluoroethyl)bicyclo[1.1.1]pentan-1-yl]-2-{5-ethyl-6-[4-(4-hydroxy-2-methoxy-5-methylpyridine-3-carbonyl)piperazin-1-yl]-2-(2-methoxypyridin-4-yl)-7-oxo-2H,4H,7H-[1,2,3]triazolo[4,5-b]pyridin-4-yl}acetamide] | 5 to 50 | 500 to 2000 | –
17 | CCc1c(N2CCN(C(=O)c3c(OC)ncc(C)c3O)[C@H]3CC[C@@H]32)c(=O)c2nn(C3=CCOCC3)nc2n1CC(=O)NC12CC(C(C)C)(C1)C2 [Compound I-24, 2-(2-(3,6-dihydro-2H-pyran-4-yl)-5-ethyl-6-((1S,6S)-5-(4-hydroxy-2-methoxy-5-methylnicotinoyl)-2,5-diazabicyclo[4.2.0]octan-2-yl)-7-oxo-2,7-dihydro-4H-[1,2,3]triazolo[4,5-b]pyridin-4-yl)-N-(3-isopropylbicyclo[1.1.1]pentan-1-yl)acetamide] | 5 to 50 | ≤ 500 | –
